Results: ChEMBL document CHEMBL4007412, “Design, Synthesis, and Biological Evaluation of Mitochondria-Targeted Flavone-Naphthalimide-Polyamine Conjugates with Antimetastatic Activity” (J Med Chem, 2017)
pIC50: −log10 of the molar value.

Columns and labels:
SMMC-7721 = experiment: Cytotoxicity against human SMMC7721 cells assessed as cell growth inhibition after 48 hrs by MTT assay; format: functional, cell-based; settings: SMMC-7721, 48 h
HepG2 = experiment: Cytotoxicity against human HepG2 cells assessed as cell growth inhibition after 48 hrs by MTT assay; format: functional, cell-based; settings: HepG2, 48 h
[1] = Cytotoxicity against human QSG7701 cells assessed as cell growth inhibition after 48 hrs by MTT assay; format: cell-based; settings: QSG7701, 48 h
H22 [2] = experiment: Antimetastatic activity against […] xenografted in pulmonary metastasis Kunming mouse model assessed as reduction in tumor metastatic nodules at 5 mg/kg, iv dosed every day starting from day 8 after tumor cell inoculation; format: functional; parameters: scale not given: the % may be the effect or the level left
H22 [3] = experiment: Antitumor activity against […] xenografted in Kunming mouse assessed as suppression of tumor weight at 5 mg/kg, iv dosed every day starting from day 8 after tumor cell inoculation; format: functional

Structure (SMILES)	pIC50 (SMMC-7721)	pIC50 (HepG2)	pIC50 [1]	Activity (H22 [2])	Activity (H22 [3])
CCCCNCCCCN1C(=O)c2cccc3c(-c4cc(=O)c5ccccc5o4)ccc(c23)C1=O	4.96	5.00	4.79		
O=C1c2cccc3c(-c4cc(=O)c5ccccc5o4)ccc(c23)C(=O)N1CCCCN1CCNCC1	4.78	4.81	4.77		
O=C1c2cccc3c(-c4cc(=O)c5ccccc5o4)ccc(c23)C(=O)N1CCCN1CCOCC1	4.50	< 4.30	4.32		
O=C1c2cccc3c(-c4cc(=O)c5ccccc5o4)ccc(c23)C(=O)N1CCCN1CCNCC1	4.36	< 4.30	4.46		
CN(C)CCN1C(=O)c2cccc3cc(N)cc(c23)C1=O [AMONAFIDE]	5.00	5.00	5.11	41.4%	48.1%
NCCCNCCCNCCCN1C(=O)c2cccc3c(-c4cc(=O)c5ccccc5o4)ccc(c23)C1=O	4.95	4.83	4.76		
NCCCCNCCCN1C(=O)c2cccc3c(-c4cc(=O)c5ccccc5o4)ccc(c23)C1=O	4.96	5.01	4.38		
CCCCN(CCCC)CCCN1C(=O)c2cccc3c(-c4cc(=O)c5ccccc5o4)ccc(c23)C1=O	4.78	4.72	< 4.30		
